According to PubChem BioAssay (NCI):
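The compound was tested at five concentrations on cells cultured in 96-well plates, with a 48-hour exposure period. Here, GI50 denotes the concentration required for 50% inhibition of growth. TGI: total growth inhibition.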

Key:
Test in all cases: NCI-60 cell line screen, 48 h
SR leukemia = tested on: SR leukemia
NCI-H522 lung = tested on: NCI-H522 lung
HCC-2998 colon = tested on: HCC-2998 colon
COLO 205 colon = tested on: COLO 205 colon
OVCAR-3 ovarian = tested on: OVCAR-3 ovarian
HCT-116 colon = tested on: HCT-116 colon
NCI-H23 lung = tested on: NCI-H23 lung
SF-268 CNS = tested on: SF-268 CNS
NCI/ADR-RES ovarian = tested on: NCI/ADR-RES ovarian
MDA-MB-435 = tested on: MDA-MB-435
NCI-H460 lung = tested on: NCI-H460 lung
SF-295 CNS = tested on: SF-295 CNS
BT-549 breast = tested on: BT-549 breast
SF-539 CNS = tested on: SF-539 CNS
SK-OV-3 ovarian = tested on: SK-OV-3 ovarian
A549 NSCLC = tested on: A549 NSCLC
PC-3 prostate = tested on: PC-3 prostate
UACC-257 melanoma = tested on: UACC-257 melanoma
HOP-92 NSCLC = tested on: HOP-92 NSCLC
MCF7 breast = tested on: MCF7 breast
RXF 393 renal = tested on: RXF 393 renal
HCT-15 colon = tested on: HCT-15 colon
SK-MEL-2 melanoma = tested on: SK-MEL-2 melanoma
NCI-H226 lung = tested on: NCI-H226 lung
CCRF-CEM leukemia = tested on: CCRF-CEM leukemia
HS 578T breast = tested on: HS 578T breast
KM12 colon = tested on: KM12 colon
IGROV1 ovarian = tested on: IGROV1 ovarian
ACHN renal = tested on: ACHN renal
SK-MEL-5 melanoma = tested on: SK-MEL-5 melanoma
SK-MEL-28 melanoma = tested on: SK-MEL-28 melanoma
MDA-MB-468 breast = tested on: MDA-MB-468 breast
OVCAR-8 ovarian = tested on: OVCAR-8 ovarian
MDA-MB-231 breast = tested on: MDA-MB-231 breast
UACC-62 melanoma = tested on: UACC-62 melanoma
DU-145 prostate = tested on: DU-145 prostate
M14 melanoma = tested on: M14 melanoma
T-47D breast = tested on: T-47D breast
SNB-19 CNS = tested on: SNB-19 CNS
SNB-75 CNS = tested on: SNB-75 CNS
OVCAR-5 ovarian = tested on: OVCAR-5 ovarian
HL-60(TB) leukemia = tested on: HL-60(TB) leukemia
RPMI-8226 leukemia = tested on: RPMI-8226 leukemia
U251 CNS = tested on: U251 CNS
K-562 leukemia = tested on: K-562 leukemia
TK-10 renal = tested on: TK-10 renal
HOP-62 NSCLC = tested on: HOP-62 NSCLC
786-0 renal = tested on: 786-0 renal
A498 renal = tested on: A498 renal
OVCAR-4 ovarian = tested on: OVCAR-4 ovarian
SW-620 colon = tested on: SW-620 colon
CAKI-1 renal = tested on: CAKI-1 renal
MALME-3M melanoma = tested on: MALME-3M melanoma
HT29 colon = tested on: HT29 colon
MOLT-4 leukemia = tested on: MOLT-4 leukemia
EKVX NSCLC = tested on: EKVX NSCLC
SN12C renal = tested on: SN12C renal
UO-31 renal = tested on: UO-31 renal
LOX IMVI melanoma = tested on: LOX IMVI melanoma

Molecule `COc1cc2c3c(n(CCCNCCO)c(=O)c2cc1OC)-c1nc2c(cc1C3=O)OCO2` has a GI50 (SR leukemia) of 0.624 µM, a TGI (SR leukemia) of 11.3 µM and a GI50 (NCI-H522 lung) of 0.886 µM. For the same molecule, the TGI (NCI-H522 lung) was 3.04 µM, the GI50 (HCC-2998 colon) was 2.14 µM and the TGI (HCC-2998 colon) was 13.2 µM. It also gave a GI50 (COLO 205 colon) of 5.88 µM, a TGI (COLO 205 colon) of 21.9 µM and a GI50 (OVCAR-3 ovarian) of 5.65 µM. For the same molecule, the TGI (OVCAR-3 ovarian) was 20.8 µM, the GI50 (HCT-116 colon) was 1.25 µM and the TGI (HCT-116 colon) was 2.67 µM. It also gave a GI50 (NCI-H23 lung) of 0.582 µM, a TGI (NCI-H23 lung) of 3.27 µM and a GI50 (SF-268 CNS) of 3.24 µM. For the same molecule, the TGI (SF-268 CNS) was 19.9 µM, the GI50 (NCI/ADR-RES ovarian) was 58.1 µM and the TGI (NCI/ADR-RES ovarian) was > 100 µM. The GI50 (MDA-MB-435) was 8.89 µM, the TGI (MDA-MB-435) was 22.5 µM and the GI50 (NCI-H460 lung) was 1.22 µM. For the same molecule, the TGI (NCI-H460 lung) was 11.8 µM, the GI50 (SF-295 CNS) was 0.702 µM and the TGI (SF-295 CNS) was 12 µM. For the same molecule, the GI50 (BT-549 breast) was 6.31 µM, the TGI (BT-549 breast) was 20.5 µM and the GI50 (SF-539 CNS) was 0.996 µM. The TGI (SF-539 CNS) was 3.24 µM, the GI50 (SK-OV-3 ovarian) was 3.27 µM and the TGI (SK-OV-3 ovarian) was 12.4 µM. It also gave a GI50 (A549 NSCLC) of 6.72 µM, a TGI (A549 NSCLC) of 21.6 µM and a GI50 (PC-3 prostate) of 3.06 µM. The TGI (PC-3 prostate) was 19.1 µM, the GI50 (UACC-257 melanoma) was 15.4 µM and the TGI (UACC-257 melanoma) was 31.2 µM. The GI50 (HOP-92 NSCLC) was 9.2 µM, the TGI (HOP-92 NSCLC) was 23.3 µM and the GI50 (MCF7 breast) was 0.256 µM. For the same molecule, the TGI (MCF7 breast) was 8.62 µM, the GI50 (RXF 393 renal) was 1.83 µM and the TGI (RXF 393 renal) was 7.21 µM. For the same molecule, the GI50 (HCT-15 colon) was 9.17 µM, the TGI (HCT-15 colon) was 27.9 µM and the GI50 (SK-MEL-2 melanoma) was 17.7 µM. For the same molecule, the TGI (SK-MEL-2 melanoma) was 33 µM, the GI50 (NCI-H226 lung) was 1.54 µM and the TGI (NCI-H226 lung) was 6.62 µM. For the same molecule, the GI50 (CCRF-CEM leukemia) was 0.262 µM, the TGI (CCRF-CEM leukemia) was 1.86 µM and the GI50 (HS 578T breast) was 11.6 µM. For the same molecule, the TGI (HS 578T breast) was 31.6 µM, the GI50 (KM12 colon) was 14.2 µM and the TGI (KM12 colon) was 33.2 µM. For the same molecule, the GI50 (IGROV1 ovarian) was 11.4 µM, the TGI (IGROV1 ovarian) was 26.2 µM and the GI50 (ACHN renal) was 3.46 µM. It also gave a TGI (ACHN renal) of 14 µM, a GI50 (SK-MEL-5 melanoma) of 1.54 µM and a TGI (SK-MEL-5 melanoma) of 10.5 µM. The GI50 (SK-MEL-28 melanoma) was 13.5 µM, the TGI (SK-MEL-28 melanoma) was 26.9 µM and the GI50 (MDA-MB-468 breast) was 1.41 µM. The TGI (MDA-MB-468 breast) was 3.21 µM, the GI50 (OVCAR-8 ovarian) was 3.61 µM and the TGI (OVCAR-8 ovarian) was 17.9 µM. It also gave a GI50 (MDA-MB-231 breast) of 11.3 µM, a TGI (MDA-MB-231 breast) of 24.5 µM and a GI50 (UACC-62 melanoma) of 2.38 µM. The TGI (UACC-62 melanoma) was 12.8 µM, the GI50 (DU-145 prostate) was 2.71 µM and the TGI (DU-145 prostate) was 14.1 µM. The GI50 (M14 melanoma) was 4.35 µM, the TGI (M14 melanoma) was 16.8 µM and the GI50 (T-47D breast) was 1.13 µM. It also gave a TGI (T-47D breast) of 12.9 µM, a GI50 (SNB-19 CNS) of 2.52 µM and a TGI (SNB-19 CNS) of 14.6 µM. It also gave a GI50 (SNB-75 CNS) of 0.83 µM, a TGI (SNB-75 CNS) of 28.2 µM and a GI50 (OVCAR-5 ovarian) of 4.39 µM. It also gave a TGI (OVCAR-5 ovarian) of 15.4 µM, a GI50 (HL-60(TB) leukemia) of 0.64 µM and a TGI (HL-60(TB) leukemia) of 12.2 µM. It also gave a GI50 (RPMI-8226 leukemia) of 2.54 µM, a TGI (RPMI-8226 leukemia) of 14.8 µM and a GI50 (U251 CNS) of 0.82 µM. It also gave a TGI (U251 CNS) of 10.7 µM, a GI50 (K-562 leukemia) of 1.56 µM and a TGI (K-562 leukemia) of 15 µM. The GI50 (TK-10 renal) was 19 µM, the TGI (TK-10 renal) was 46 µM and the GI50 (HOP-62 NSCLC) was 0.416 µM. It also gave a TGI (HOP-62 NSCLC) of 4.48 µM, a GI50 (786-0 renal) of 2.43 µM and a TGI (786-0 renal) of 11.8 µM. For the same molecule, the GI50 (A498 renal) was 13.4 µM, the TGI (A498 renal) was 27.2 µM and the GI50 (OVCAR-4 ovarian) was 13 µM. For the same molecule, the TGI (OVCAR-4 ovarian) was 49.5 µM, the GI50 (SW-620 colon) was 2.01 µM and the TGI (SW-620 colon) was 16.8 µM. For the same molecule, the GI50 (CAKI-1 renal) was 2.39 µM, the TGI (CAKI-1 renal) was 16.5 µM and the GI50 (MALME-3M melanoma) was 5.08 µM. It also gave a TGI (MALME-3M melanoma) of 19.6 µM, a GI50 (HT29 colon) of 2.69 µM and a TGI (HT29 colon) of 11.3 µM. It also gave a GI50 (MOLT-4 leukemia) of 0.364 µM, a TGI (MOLT-4 leukemia) of 34.8 µM and a GI50 (EKVX NSCLC) of 7.47 µM. It also gave a TGI (EKVX NSCLC) of 21.2 µM, a GI50 (SN12C renal) of 3.94 µM and a TGI (SN12C renal) of 16.4 µM. It also gave a GI50 (UO-31 renal) of 7.47 µM, a TGI (UO-31 renal) of 21.7 µM and a GI50 (LOX IMVI melanoma) of 0.534 µM. For the same molecule, the TGI (LOX IMVI melanoma) was 1.98 µM.
